Values after ≈ are worked out from the molar mass of the structure shown.

As usually defined, the MIC is the smallest concentration in the dilution series that meets the test's criterion for growth inhibition. High values mean a need for much substance, low ones inhibition by little substance.

In the assay the test system is Mycobacterium tuberculosis. Put plainly: Antimycobacterial activity against Mycobacterium tuberculosis H37Rv by agar diffusion method. In kind it is functional. In general terms: A growth-free zone around the sample is the usual read-out of agar diffusion tests.
As for `NC(=O)c1cnccn1` [PYRAZINAMIDE], the MIC came out at 6.25 µg/mL (≈ 50.8 µM).
As to `COc1ccc2c(CS(=O)(=O)c3nc4ccccc4o3)cc(=O)oc2c1OC`, inhibition of growth (MIC) required 0.78 µg/mL (≈ 1.94 µM).
Next, `COc1ccc2c(CS(=O)(=O)c3ccccc3)cc(=O)oc2c1`: 12.5 µg/mL (≈ 37.8 µM).
`CC[C@@H](CO)NCCN[C@@H](CC)CO` [ETHAMBUTOL] had a minimum inhibitory concentration (MIC) of 1.56 µg/mL (≈ 7.64 µM).
As for `O=c1cc(CS(=O)(=O)c2nc3ccccc3o2)c2ccccc2o1`, the MIC was 7.5 µg/mL (≈ 22 µM).
As for `COc1ccc2c(CS(=O)(=O)c3nc4ccccc4[nH]3)cc(=O)oc2c1`, the figure is 6.25 µg/mL (≈ 16.9 µM); as for `COc1ccc2c(CS(=O)(=O)c3nc4ccccc4o3)cc(=O)oc2c1`, 6.25 µg/mL (≈ 16.8 µM); as for `COc1ccc2c(CS(=O)(=O)c3ccc(C)cc3)cc(=O)oc2c1`, 12.5 µg/mL (≈ 36.3 µM).
Consider `O=c1cc(CS(=O)(=O)c2nc3ccccc3[nH]2)c2ccccc2o1`, for which the MIC came to 1.61 µg/mL (≈ 4.73 µM).
The molecule `Cc1ccc(S(=O)(=O)Cc2cc(=O)oc3ccccc23)cc1` returned an MIC of 12.5 µg/mL (≈ 39.8 µM).
For `COc1ccc2c(CS(=O)(=O)c3ccc(Cl)cc3)cc(=O)oc2c1OC`, it took 1.56 µg/mL (≈ 3.95 µM) to inhibit growth (MIC).
Molecule `O=c1cc(CS(=O)(=O)c2ccc(Cl)cc2)c2ccccc2o1` displayed an MIC of 12.5 µg/mL (≈ 37.3 µM).
As to `COc1ccc2c(CS(=O)(=O)C3CCCCC3)cc(=O)oc2c1OC`, the MIC is 12.5 µg/mL (≈ 34.1 µM).
Turning to `O=c1cc(CS(=O)(=O)C2CCCCC2)c2ccccc2o1`, the MIC is 6.25 µg/mL (≈ 20.4 µM).
Take `COc1ccc2c(CS(=O)(=O)C3CCCCC3)cc(=O)oc2c1`: the MIC was 12.5 µg/mL (≈ 37.2 µM).
As to `COc1ccc2c(CS(=O)(=O)c3ccccc3)cc(=O)oc2c1OC`, the lowest concentration to inhibit growth (MIC) was 6.25 µg/mL (≈ 17.3 µM).
Consider `COc1ccc2c(CS(=O)(=O)c3ccc(C)cc3)cc(=O)oc2c1OC`, for which it took 3.13 µg/mL (≈ 8.36 µM) to inhibit growth (MIC).
`COc1ccc2c(CS(=O)(=O)c3nc4ccccc4[nH]3)cc(=O)oc2c1OC`: the MIC stood at 6.25 µg/mL (≈ 15.6 µM).
In turn, `COc1ccc2c(CS(=O)(=O)c3ccc(Cl)cc3)cc(=O)oc2c1` registered an MIC of 6.25 µg/mL (≈ 17.1 µM).
Next, `O=c1cc(CS(=O)(=O)c2ccccc2)c2ccccc2o1`: 6.25 µg/mL (≈ 20.8 µM).

The values above are taken from ChEMBL document CHEMBL2046407, “Synthesis and in vitro antitubercular activity of 4-aryl/alkylsulfonylmethylcoumarins as inhibitors of Mycobacterium tuberculosis” (2012).
